According to PubChem BioAssay (NCI):
Values joined by “and” are separate entries in the source; they are usually repeats but may differ in a detail not shown here. Equal values may be shown once.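 In this assay, cells in 96-well plates receive the compound at five concentrations for 48 hours. Endpoints are linearly interpolated between the surrounding concentrations. Abbreviation: GI50, concentration required for 50% inhibition of growth. TGI: total growth inhibition.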

Test system: SK-MEL-28 melanoma
Test: NCI tumour cell line growth inhibition, 48 h

| Compound | GI50 | TGI |
| --- | --- | --- |
| COc1ccc(OC)c2c1[nH]c(=O)c1c3ccccc3cn21 | 1.92 µM | 3.38 µM |
| CN(C)CCNC(=O)c1cccc2ccc(-c3ccc(O)cc3)nc12 | 4.14 µM | 11.8 µM and 16.2 µM |
| CSc1nc(=O)n(CCC#N)nc1SC | – | 47.8 µM |
| COc1cc(-c2oc(=O)ccc2C#Cc2ccccn2)cc(OC)c1OC | 3.34 µM | > 100 µM |
| COc1cccc(C2CC(C)(O)Oc3cc4c(cc32)OCO4)c1O (stereo not drawn) | – | > 100 µM |
| CCN(CC)CCC(CNc1ccnc2cc(Cl)ccc12)c1ccc(Cl)cc1 (stereo not drawn) | 0.763 µM | 2.06 µM |
| CCOC(=O)C(C#N)C1=CC(=O)C(=O)c2ccc(OC)cc21 (stereo not drawn) | – | 41.4 µM |
| COc1cc(OCc2cccc(-c3ccc(C(O)c4nccs4)cc3)c2C)cc(OC)c1C=O (stereo not drawn) | 2.04 µM | 6.57 µM |
| O=C(O)COc1ccc2c(=O)c3sc4c(=O)c5ccccc5c(=O)c4c3c(=O)c2c1 | 8.19 µM | 28.6 µM |
| O=C(Nc1ccc2ncccc2c1)Nc1ccc2ncccc2c1 | – | > 100 µM |
| CC1(C)S[C@@H]2[C@H](NC(=O)C3(N)CCCCC3)C(=O)N2[C@H]1C(=O)O | – | > 100 µM |
| O=C(Nc1ccc(Nc2ccncc2)cc1)c1ccc([N+](=O)[O-])cc1 | 5 µM | 16.7 µM |
| COC(=O)C[C@](O)(CCCC(C)(C)O)C(=O)O[C@@H]1C(OC)=C[C@]23CCCN2CCc2cc4c(cc2[C@H]13)OCO4 | 0.0222 µM | – |

Test system: A498 renal
Test: NCI tumour cell line growth inhibition, 48 h

| Compound | GI50 | TGI |
| --- | --- | --- |
| COc1ccc(OC)c2c1[nH]c(=O)c1c3ccccc3cn21 | 1.77 µM | 3.2 µM |
| CN(C)CCNC(=O)c1cccc2ccc(-c3ccc(O)cc3)nc12 | – | 12.1 µM |
| CSc1nc(=O)n(CCC#N)nc1SC | – | > 100 µM |
| COc1cc(-c2oc(=O)ccc2C#Cc2ccccn2)cc(OC)c1OC | 3.81 µM | > 48.3 µM |
| COc1cccc(C2CC(C)(O)Oc3cc4c(cc32)OCO4)c1O (stereo not drawn) | – | > 100 µM |
| CCN(CC)CCC(CNc1ccnc2cc(Cl)ccc12)c1ccc(Cl)cc1 (stereo not drawn) | 1.21 µM | 2.76 µM |
| CCOC(=O)C(C#N)C1=CC(=O)C(=O)c2ccc(OC)cc21 (stereo not drawn) | – | 58.9 µM |
| COc1cc(OCc2cccc(-c3ccc(C(O)c4nccs4)cc3)c2C)cc(OC)c1C=O (stereo not drawn) | 0.103 µM | 0.238 µM |
| O=C(O)COc1ccc2c(=O)c3sc4c(=O)c5ccccc5c(=O)c4c3c(=O)c2c1 | 14.7 µM | 28.1 µM |
| O=C(Nc1ccc2ncccc2c1)Nc1ccc2ncccc2c1 | – | > 100 µM |
| CC1(C)S[C@@H]2[C@H](NC(=O)C3(N)CCCCC3)C(=O)N2[C@H]1C(=O)O | – | > 100 µM |
| O=C(Nc1ccc(Nc2ccncc2)cc1)c1ccc([N+](=O)[O-])cc1 | 2.43 µM | 9 µM |
| COC(=O)C[C@](O)(CCCC(C)(C)O)C(=O)O[C@@H]1C(OC)=C[C@]23CCCN2CCc2cc4c(cc2[C@H]13)OCO4 | 0.0173 µM | 0.146 µM and 0.0396 µM |

Test system: SR leukemia
Test: NCI tumour cell line growth inhibition, 48 h

| Compound | GI50 | TGI |
| --- | --- | --- |
| COc1ccc(OC)c2c1[nH]c(=O)c1c3ccccc3cn21 | 0.189 µM | 2.36 µM |
| CN(C)CCNC(=O)c1cccc2ccc(-c3ccc(O)cc3)nc12 | – | 15.7 µM |
| CSc1nc(=O)n(CCC#N)nc1SC | – | > 100 µM |
| COc1cc(-c2oc(=O)ccc2C#Cc2ccccn2)cc(OC)c1OC | 0.257 µM | > 39.9 µM |
| COc1cccc(C2CC(C)(O)Oc3cc4c(cc32)OCO4)c1O (stereo not drawn) | – | > 51.7 µM |
| CCN(CC)CCC(CNc1ccnc2cc(Cl)ccc12)c1ccc(Cl)cc1 (stereo not drawn) | 0.311 µM | 1.48 µM |
| CCOC(=O)C(C#N)C1=CC(=O)C(=O)c2ccc(OC)cc21 (stereo not drawn) | – | > 100 µM |
| COc1cc(OCc2cccc(-c3ccc(C(O)c4nccs4)cc3)c2C)cc(OC)c1C=O (stereo not drawn) | 1.82 µM | 5.08 µM |
| O=C(O)COc1ccc2c(=O)c3sc4c(=O)c5ccccc5c(=O)c4c3c(=O)c2c1 | 32.8 µM | > 100 µM |
| O=C(Nc1ccc2ncccc2c1)Nc1ccc2ncccc2c1 | – | > 100 µM |
| CC1(C)S[C@@H]2[C@H](NC(=O)C3(N)CCCCC3)C(=O)N2[C@H]1C(=O)O | – | > 100 µM |
| O=C(Nc1ccc(Nc2ccncc2)cc1)c1ccc([N+](=O)[O-])cc1 | 2.32 µM | > 20.4 µM |
| COC(=O)C[C@](O)(CCCC(C)(C)O)C(=O)O[C@@H]1C(OC)=C[C@]23CCCN2CCc2cc4c(cc2[C@H]13)OCO4 | – | 0.751 µM |

Test system: COLO 205 colon
Test: NCI tumour cell line growth inhibition, 48 h

| Compound | GI50 | TGI |
| --- | --- | --- |
| COc1ccc(OC)c2c1[nH]c(=O)c1c3ccccc3cn21 | 1.2 µM | 2.79 µM |
| CN(C)CCNC(=O)c1cccc2ccc(-c3ccc(O)cc3)nc12 | 2.31 µM | 14.6 µM and 14.4 µM |
| CSc1nc(=O)n(CCC#N)nc1SC | – | 52.8 µM |
| COc1cc(-c2oc(=O)ccc2C#Cc2ccccn2)cc(OC)c1OC | 3.72 µM | > 30.9 µM |
| COc1cccc(C2CC(C)(O)Oc3cc4c(cc32)OCO4)c1O (stereo not drawn) | – | 41.3 µM |
| CCN(CC)CCC(CNc1ccnc2cc(Cl)ccc12)c1ccc(Cl)cc1 (stereo not drawn) | 1.13 µM | 2.5 µM |
| CCOC(=O)C(C#N)C1=CC(=O)C(=O)c2ccc(OC)cc21 (stereo not drawn) | – | 32.3 µM |
| COc1cc(OCc2cccc(-c3ccc(C(O)c4nccs4)cc3)c2C)cc(OC)c1C=O (stereo not drawn) | 2.64 µM | 8.27 µM |
| O=C(O)COc1ccc2c(=O)c3sc4c(=O)c5ccccc5c(=O)c4c3c(=O)c2c1 | 13.7 µM | 31.4 µM |
| O=C(Nc1ccc2ncccc2c1)Nc1ccc2ncccc2c1 | – | > 100 µM |
| CC1(C)S[C@@H]2[C@H](NC(=O)C3(N)CCCCC3)C(=O)N2[C@H]1C(=O)O | – | > 100 µM |
| O=C(Nc1ccc(Nc2ccncc2)cc1)c1ccc([N+](=O)[O-])cc1 | 1.9 µM | 3.73 µM |
| COC(=O)C[C@](O)(CCCC(C)(C)O)C(=O)O[C@@H]1C(OC)=C[C@]23CCCN2CCc2cc4c(cc2[C@H]13)OCO4 | 0.0283 µM | – |

Test system: MDA-MB-435
Test: NCI tumour cell line growth inhibition, 48 h

| Compound | GI50 | TGI |
| --- | --- | --- |
| COc1ccc(OC)c2c1[nH]c(=O)c1c3ccccc3cn21 | 1.62 µM | 3.13 µM |
| CN(C)CCNC(=O)c1cccc2ccc(-c3ccc(O)cc3)nc12 | – | 15.5 µM |
| CSc1nc(=O)n(CCC#N)nc1SC | – | > 100 µM |
| COc1cc(-c2oc(=O)ccc2C#Cc2ccccn2)cc(OC)c1OC | 0.171 µM | 0.932 µM |
| COc1cccc(C2CC(C)(O)Oc3cc4c(cc32)OCO4)c1O (stereo not drawn) | – | 9.77 µM |
| CCN(CC)CCC(CNc1ccnc2cc(Cl)ccc12)c1ccc(Cl)cc1 (stereo not drawn) | 0.402 µM | 1.65 µM |
| CCOC(=O)C(C#N)C1=CC(=O)C(=O)c2ccc(OC)cc21 (stereo not drawn) | – | 35.4 µM |
| COc1cc(OCc2cccc(-c3ccc(C(O)c4nccs4)cc3)c2C)cc(OC)c1C=O (stereo not drawn) | 2.22 µM | 6.26 µM |
| O=C(O)COc1ccc2c(=O)c3sc4c(=O)c5ccccc5c(=O)c4c3c(=O)c2c1 | 1.78 µM | 3.35 µM |
| O=C(Nc1ccc2ncccc2c1)Nc1ccc2ncccc2c1 | – | > 100 µM |
| CC1(C)S[C@@H]2[C@H](NC(=O)C3(N)CCCCC3)C(=O)N2[C@H]1C(=O)O | – | > 100 µM |
| O=C(Nc1ccc(Nc2ccncc2)cc1)c1ccc([N+](=O)[O-])cc1 | 5.47 µM | 21.2 µM |
| COC(=O)C[C@](O)(CCCC(C)(C)O)C(=O)O[C@@H]1C(OC)=C[C@]23CCCN2CCc2cc4c(cc2[C@H]13)OCO4 | 0.0279 µM | – |
